# Tested on: BT474 tumors
# Test: Targeted metabolomic analysis of 99 metabolites in BT474 tumors
# Assay type: in vivo, mouse
# Settings: VY-3-135 vs vehicle
# Method: All metabolomic experiments were performed in serum-like modified Eagle's medium (SMEM). SMEM contains 54 different nutrients that are found in the bloodstream at concentrations that are physiologically relevant to humans. SMEM was supplemented with 10% or 1% fetal bovine serum (FBS; Life Technologies). Cells were grown in normoxia (atmospheric oxygen) or hypoxia (1% oxygen) while being incubated in uniformly labeled ^13C2-acetate (0.100 mM; Cambridge Isotope Laboratories). Lengths of incubation are described in the figure legends. For extraction of metabolites from cultured cells, SMEM medium was aspirated and cells were washed once in ice-cold PBS. Metabolites were extracted by adding a solution of LC-MS grade methanol/acetonitrile/water (5:3:2) to the well. Plates were incubated at 4° C. for 5 minutes on a rocker and then the extraction solution was collected. The metabolite extract was cleared by centrifugation at 15,000×g for 10 minutes at 4° C. Supernatants were transferred to LC-MS silanized glass vials with PTFE caps and either run immediately on the LC-MS or stored at −80° C. For extraction of metabolites from tumors, tumor bearing mice were sacrificed by exsanguination under anesthesia and tumors were immediately excised and flash frozen in liquid nitrogen. Frozen tumors were weighed and then extracted at 40 mg/mL in extraction solution using a tissue homogenizer (Bullet Blender) and stainless steel beads. The metabolite extract was cleared twice by centrifugation at 15,000×g for 10 minutes at 4° C. Supernatants were transferred to LC-MS silanized glass vials with PTFE caps and either run immediately on the LC-MS or stored at −80° C.
# LC-MS analysis was performed on a Q Exactive Hybrid Quadrupole-Orbitrap HF-X MS (ThermoFisher Scientific) equipped with a HESI II probe and coupled to a Vanquish Horizon UHPLC system (ThermoFisher Scientific). 0.002 ml of sample is injected and separated by HILIC chromatography on a ZIC-pHILIC 2.1-mm. Samples are separated by ammonium carbonate, 0.1% ammonium hydroxide, pH 9.2, and mobile phase B is acetonitrile. […] The relevant MS parameters were as listed: sheath gas, 40; auxiliary gas, 10; sweep gas, 1; auxiliary gas heater temperature, 350° C.; spray voltage, 3.5 kV for the positive mode and 3.2 kV for the negative mode. Capillary temperature was set at 325° C., and funnel RF level at 40. Samples were analyzed in full MS scan with polarity switching at scan range 65 to 975 m/z; 120,000 resolution; automated gain control (AGC) target of 1E6; and maximum injection time (max IT) of 100 milliseconds. Identification and quantitation of metabolites was performed using an annotated compound library and TraceFinder 4.1 software. The “M+X” nomenclature refers to the isotopolog for that given metabolite. Isotopologs are chemically identical metabolites that differ only in their number of carbon-13 atoms. For instance, “M+2 citrate” means that two of the six carbons in citrate are carbon-13 while the other four are carbon-12. “M+4 citrate” means that four of the six carbons in citrate are carbon-13 while the other two are carbon-12.
# A targeted metabolomic analysis of 99 metabolites in vehicle versus VY-3-135 treated BT474 tumors was performed (FIG. 6E and Table 2).
structure (smiles),measurement,value
"CCn1c(C(O)(c2ccccc2)c2ccccc2)nc2ccc(C(=O)NC[C@@H](C)O)cc21 [VY-3-135, (R)-1-ethyl-2-(hydroxydiphenylmethyl)-N-(2-hydroxypropyl)-1H-benzo[d]imidazole-6-carboxamide]",Log2 FC (VY/Veh) 2-aminobutyrate,−0.5166
same,Log2 FC (VY/Veh) 3 -hydroxybutryate,−1.001
same,Log2 FC (VY/Veh) 3-phosphoglycerate,−0.5802
same,Log2 FC (VY/Veh) 4-hydroxyproline,−0.725
same,Log2 FC (VY/Veh) ADP,−1.452
same,Log2 FC (VY/Veh) AMP,−0.6555
same,Log2 FC (VY/Veh) ATP,−2.026
same,Log2 FC (VY/Veh) CDP,−1.642
same,Log2 FC (VY/Veh) CDP-choline,−2.603
same,Log2 FC (VY/Veh) CDP-ethanolamine,−1.552
same,Log2 FC (VY/Veh) CMP,−0.8199
same,Log2 FC (VY/Veh) DHAP/G3P,−2.029
same,Log2 FC (VY/Veh) FBP,−1.71
same,Log2 FC (VY/Veh) GDP,−2.599
same,Log2 FC (VY/Veh) GMP,−1.275
same,Log2 FC (VY/Veh) GSH,−0.6903
same,Log2 FC (VY/Veh) GSSG,0.2094
same,Log2 FC (VY/Veh) IMP,1.067
same,Log2 FC (VY/Veh) PEP,−1.207
same,Log2 FC (VY/Veh) SAH,−0.3532
same,Log2 FC (VY/Veh) SAM,−1.16
same,Log2 FC (VY/Veh) UDP,−1.495
same,Log2 FC (VY/Veh) UDP-GlcNAc,−0.8007
same,Log2 FC (VY/Veh) UMP,−0.4024
same,Log2 FC (VY/Veh) UTP,−2.182
same,Log2 FC (VY/Veh) acetyl-aspartate,−0.7575
same,Log2 FC (VY/Veh) acetyl-carnitine,−0.5449
same,Log2 FC (VY/Veh) acetyl-glycine,−1.037
same,Log2 FC (VY/Veh) acetyl-putrescine,−1.423
same,Log2 FC (VY/Veh) adenine,1.003
same,Log2 FC (VY/Veh) adenosine,1.879
same,Log2 FC (VY/Veh) aketoglutarate,0.9192
same,Log2 FC (VY/Veh) alanine,−0.6739
same,Log2 FC (VY/Veh) arginine,0.7229
same,Log2 FC (VY/Veh) arginosuccinate,−0.1741
same,Log2 FC (VY/Veh) asparagine,−1.225
same,Log2 FC (VY/Veh) aspartate,0.009996
same,Log2 FC (VY/Veh) betaine,−0.4739
same,Log2 FC (VY/Veh) carbamoyl-asp,−0.787
same,Log2 FC (VY/Veh) carnitine,−0.6768
same,Log2 FC (VY/Veh) choline,−0.5304
same,Log2 FC (VY/Veh) cis-aconitate,−0.2247
same,Log2 FC (VY/Veh) citrate,−0.1134
same,Log2 FC (VY/Veh) citrulline,−0.3937
same,Log2 FC (VY/Veh) creatine,−0.5321
same,Log2 FC (VY/Veh) creatinine,0.01869
same,Log2 FC (VY/Veh) cystathionine,−1.232
same,Log2 FC (VY/Veh) cystine,−0.4837
same,Log2 FC (VY/Veh) cytidine,1.244
same,Log2 FC (VY/Veh) cytosine,1.232
same,Log2 FC (VY/Veh) ethanolamine-P,−1.364
same,Log2 FC (VY/Veh) glucose-6-P,0.03691
same,Log2 FC (VY/Veh) glucose/hexose,0.9908
same,Log2 FC (VY/Veh) glutamate,−0.5429
same,Log2 FC (VY/Veh) glutamine,0.09203
same,Log2 FC (VY/Veh) glycerol,0.1079
same,Log2 FC (VY/Veh) glycerol-3-P,−0.8487
same,Log2 FC (VY/Veh) glycine,−0.4034
same,Log2 FC (VY/Veh) guanine,1.969
same,Log2 FC (VY/Veh) guanosine,3.356
same,Log2 FC (VY/Veh) histidine,−0.4238
same,Log2 FC (VY/Veh) hypoxanthine,0.3548
same,Log2 FC (VY/Veh) isoleucine,−1.483
same,Log2 FC (VY/Veh) lactate,−1.761
same,Log2 FC (VY/Veh) leucine,−0.6361
same,Log2 FC (VY/Veh) lysine,−1.026
same,Log2 FC (VY/Veh) malate,0.0239
same,Log2 FC (VY/Veh) malonate,0.1254
same,Log2 FC (VY/Veh) methionine,−1.631
same,Log2 FC (VY/Veh) methyl-lysine,−1.396
same,Log2 FC (VY/Veh) myo-inositol,−0.4307
same,Log2 FC (VY/Veh) niacin/nicotinate,1.977
same,Log2 FC (VY/Veh) nicotinamide,0.1254
same,Log2 FC (VY/Veh) nicotinamide N-oxide,4.808
same,Log2 FC (VY/Veh) ornithine,−0.7516
same,Log2 FC (VY/Veh) pantothenate,−0.6181
same,Log2 FC (VY/Veh) phenylalanine,−0.5091
same,Log2 FC (VY/Veh) phosphocholine,−0.7924
same,Log2 FC (VY/Veh) phosphocreatine,0.324
same,Log2 FC (VY/Veh) proline,−0.4024
same,Log2 FC (VY/Veh) pyridoxine,0.3808
same,Log2 FC (VY/Veh) pyruvate,−0.8037
same,Log2 FC (VY/Veh) riboflavin,−2.12
same,Log2 FC (VY/Veh) ribose,−0.5026
same,Log2 FC (VY/Veh) ribose-P,0.2634
same,Log2 FC (VY/Veh) sedoheptulose-P,−0.2584
same,Log2 FC (VY/Veh) serine,1.09
same,Log2 FC (VY/Veh) succinate,−1.793
same,Log2 FC (VY/Veh) succinyladenosine,−0.8738
same,Log2 FC (VY/Veh) succinylcysteine,−0.9561
same,Log2 FC (VY/Veh) succinylglutathione,−1.861
same,Log2 FC (VY/Veh) taurine,0.1159
same,Log2 FC (VY/Veh) threonine,−0.9186
same,Log2 FC (VY/Veh) thymidine,2.328
same,Log2 FC (VY/Veh) tryptophan,−0.2045
same,Log2 FC (VY/Veh) tyrosine,−0.8432
same,Log2 FC (VY/Veh) urate,−0.6288
same,Log2 FC (VY/Veh) valine,−0.5942
same,Log2 FC (VY/Veh) xanthine,−0.8286

# From patent publication US12281084B2, “Acetyl-CoA synthetase 2 (ACSS2) inhibitors and methods using same” (The Wistar Institute, priority 2019, dated 2025)
